The results in this text go back to US20150165097A1, “HARDENABLE ANTIMICROBIAL COMPOSITION” (priority 2012, published 2015).

Data set [1] can be described thus: Solubility of antimicrobial agent in plasticizer with heat stabilizer package (Example 2), judged visually. The note with it: 1.1 wt %; ESO, DDPP and ZnOct present. As for the experimental part: To the vial containing the plasticizer and antimicrobial, the appropriate amount (see below) of a master batch solution of PVC heat stabilizer was added. The master batch solution of PVC heat stabilizer included: epoxidized soybean oil (ESO), decyl diphenyl Phosphite (DDPP), and zinc octoate (ZnOct). The solution was allowed to roll overnight at ambient temperature at 60 rpm to determine if the antimicrobial was soluble in that system. Samples were evaluated visually for solubility. […] Samples that were clear were judged to have the cationic antimicrobial completely soluble. Those that were hazy were judged to have the antimicrobial partially soluble. Those that were opaque white were substantially insoluble.

Data set [2] can be described thus: Solubility of antimicrobial agent in plasticizer alone (Example 1). It counts as physicochemical. Here is the method: The solubility of three different antimicrobial agents: benzalkonium chloride (BKC), octenidine dihydrochloride (OCT), and polyhexamethylene biguanide (PHMB); in various plasticizers was evaluated by the following procedure. The antimicrobial agent was added to a small vial; to this, the plasticizer of interest was added. […] In each solution, 1.5% wt/wt of one antimicrobial agent (BKC, OCT, or PHMB) was combined with 98.5% wt/wt of one of each of the following plasticizers: DINCH, acetyl tributyl citrate, trioctyl trimellitate, dioctyl adipate, or polyester adipate.

The nature of data set [3]: Solubility / solution appearance of antimicrobial agent in vehicle before addition of PVC.
Method: The antimicrobial agent was added to a small vial. For samples containing CPC or OCT, benzyl alcohol (BzOH, available from Mallinkrodt Baker Inc. of Phillipsburg, N.J.), was also added and the mixture was vortexed. Zinc octoate (ZnOct) was then added to the mixture. In a separate jar, a batch mixture containing DINCH, ESO and di-IDPP was prepared; the solution was allowed to roll until a clear/colorless mixture was obtained with no mixing lines. In a separate jar, the appropriate amount of batch mixture was added into the vial containing the antimicrobial agent, solvent, and zinc octoate (ZnOct). The mixture was vortexed and the solution was allowed to roll at a setting of 60 rpm until a determination was made as to whether or not the antimicrobial was dissolving in the solution.
The BKC was dispensed into a 25 mL vial. To this was added the DINCH, TIDP, and ZnOct in that order. The vial was then capped and vortexed for several seconds, and then placed on rollers set at 65 rpm in order to promote the dissolution (if possible) of the BKC. […]
The antimicrobial agents assessed were BKC, BZT, OCT, PCMX, POEtOH, and PHMB. The amount of each antimicrobial agent added was calculated to be equal to the same number of moles of BKC at 1.5 wt % in the plastisol formulation. […]

Structures can show the parent of a compound that is named as a salt. Where two headings read alike, the source gives them in different places.

Polyhexamethylene biguanide [PHMB]: in data set [1], the “Solubility in DINCH, ATC, TOTM, DOA and PEA with heat stabilizing package” value (shortened to “Solubility in DINCH, ATC, TOTM”) is “not soluble”. Also, the Solubility in plasticizer result in data set [2] (1.5% wt/wt antimicrobial agent in 98.5% wt/wt DINCH, acetyl tributyl citrate, trioctyl trimellitate, dioctyl adipate or polyester adipate, rolled 16 hours at 60 rpm) is listed as “none of these antimicrobial agents were soluble”.
As to `OCCOc1ccccc1` [POEtOH, 2-phenoxyethanol], the “Solubility in MESAMOLL” value in data set [3] (Example 8, BZT: at low concentrations of ZnOct, OCT: even with increasing amounts of ZnOct) is “well below their solubility limits”.
For `CCCCCCCCCCCCCC[N+](C)(C)Cc1ccccc1.[Cl-]` [BKC, Benzyl dimethyl tetradecyl ammonium chloride], the “Solubility in DINCH, ATC, TOTM” value in data set [1] was “soluble”. Moreover, the “Solubility of BKC in DINCH, TIDP vehicle” value in data set [3] (Example 4, in the absence of ZnOct) is listed as “much less solubility”. Further, in data set [2], the Solubility in plasticizer entry was “none of these antimicrobial agents were soluble”.
`CCCCCCCCN=c1ccn(CCCCCCCCCCn2ccc(=NCCCCCCCC)cc2)cc1` [OCT, Octenidine dihydrochloride]: the “Solubility in DINCH, ATC, TOTM” value in data set [1] is “not soluble”. For the same molecule, the Solubility in plasticizer result in data set [2] was “none of these antimicrobial agents were soluble”.
